In paper PMC8151276, “An Integrated Approach toward NanoBRET Tracers for Analysis of GPCR Ligand Engagement” (Molecules, 2021):
Blank lines part the entries; values can stand above or below the compound they belong to.

Key:
CCR10 = molecular target: T1, CCR10 (Homo sapiens, UniProt P46092); experiment: NanoBRET screen HiBiT-CCR10 in HEK293; type: binding
T1 construct: purchased Promega (in-house HiBiT-GPCR construct library, NanoBRET)
T1 sequence (P46092 1-362): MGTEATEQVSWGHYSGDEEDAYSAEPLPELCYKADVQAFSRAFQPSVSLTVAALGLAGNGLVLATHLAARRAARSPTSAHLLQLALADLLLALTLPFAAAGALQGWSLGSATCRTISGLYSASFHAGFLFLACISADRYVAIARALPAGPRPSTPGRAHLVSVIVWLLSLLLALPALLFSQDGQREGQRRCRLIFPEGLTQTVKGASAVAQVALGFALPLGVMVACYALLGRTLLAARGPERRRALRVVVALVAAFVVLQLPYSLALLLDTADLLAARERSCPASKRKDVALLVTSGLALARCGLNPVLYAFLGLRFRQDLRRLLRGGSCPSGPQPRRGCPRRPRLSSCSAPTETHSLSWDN
Procedure: (§1) Each tracer candidate was screened across the entire library of HiBiT-GPCR constructs using NanoBRET as the detection modality. As depicted in Figure 4A, the specificity of interactions was evaluated through decrease in BRET due to competitive displacement of a bound tracer by excess parental compound. Each tracer was analyzed for binding to each HiBiT-GPCR fusion in the absence and in the presence of competing parental compound. Briefly, HEK293 cells were transfected with HiBiT-GPCR constructs diluted into promoterless DNA to reduce expression and maximize translocation to the cell surface. Each tracer candidate was then screened at concentrations of 1 μM and 0.1 μM across cells expressing these fusions. Cells were treated for 1.5 h with tracer either alone or in the presence of 20 μM competing parental compound (i.e., control). BRET was measured upon addition of purified LgBiT and subsequent complementation with HiBiT genetically fused to a GPCR. The specificity of interactions was assessed through a decrease in BRET signal due to competitive displacement of the bound tracer. To further gauge the robustness of these interactions, the fold response over the control (i.e., BRETtracer/BRETcontrol) was calculated. We chose a 1.5-fold response, which translates to ≥7-fold signal over noise as the minimal threshold required to score an interaction as positive.
(§2) HiBiT-GPCR DNA constructs were diluted in 10 mM Tris pH 8 to a final concentration of 0.01 μg/μL, arrayed in 96-well plates and stored at −20 °C. For transfection, HEK293 cells were suspended in Opti-MEM (without phenol red) supplemented with 2% fetal bovine serum (Seradigm) and 100 units/mL penicillin–streptomycin (Gibco) at a final concentration of 220,000 cells/mL and dispensed into white 96-well plates at 90 μL/well. Subsequent transfections and screens were carried using an Agilent Bravo Automated Liquid Handling Platform. First, the 96-well HiBiT DNA arrays were diluted 25-fold in Opti-MEM (without serum or phenol red) to a final concentration of 0.0004 μg/μL and 20 μL of the diluted DNAs were transferred into new 96-well plates. Next, promoterless carrier DNA (1 μg/μL) was diluted 25-fold (0.04 μg/μL) and then dispensed into the diluted arrays at 20 μL/well. Following brief mixing, Viafect transfection reagent (Promega) diluted 16-fold into Opti-MEM was dispensed into the plates at 40 μL/well. After mixing by pipetting, plates were incubated for 10 min on the pipetting station deck. The DNA-transfection reagent complexes were then added to plates containing cells. To facilitate the screen, 10 μL of DNA-transfection reagent complexes were added in duplicates to the top 4 and bottom 4 rows, resulting in two identical 48-well arrays per plate. Plates with transfected cells were incubated for 18–20 h at 37 °C/5% CO2. A screen of each tracer across the entire library using two different concentrations requires duplicate plates of transfected cells. Depending on the number of tracers being screened, transfections can be scaled up using the same ratios. The next day, for each tracer, four 20× screening solutions in tracer dilution buffer (Promega) were prepared: two duplicates at final concentration of 20 μM and two duplicates at a final concentration of 2 μM. […] The four resulting solutions were diluted 4-fold in Opti-MEM without serum or phenol red to generate 5× solutions (5 µM and 0.5 µM tracer +/− 100 μM competing compound). To screen the library, a BioTek MultiFlo FX liquid dispenser was used to dispense 22.5 µL of tracer solution to the top 4 rows and 22.5 µL tracer + competing compound solution to the 4 bottom rows. Plates were briefly mixed on an orbital shaker and incubated for 1.5 h at room temperature. […] Plates were briefly mixed on an orbital shaker and incubated for 15 min to allow complementation.

CHRM5 = molecular target: T2, CHRM5 (Homo sapiens, UniProt P08912); experiment: NanoBRET screen HiBiT-CHRM5 in HEK293; type: binding
T2 construct: purchased Promega (in-house HiBiT-GPCR construct library, NanoBRET)
T2 sequence (P08912 1-532): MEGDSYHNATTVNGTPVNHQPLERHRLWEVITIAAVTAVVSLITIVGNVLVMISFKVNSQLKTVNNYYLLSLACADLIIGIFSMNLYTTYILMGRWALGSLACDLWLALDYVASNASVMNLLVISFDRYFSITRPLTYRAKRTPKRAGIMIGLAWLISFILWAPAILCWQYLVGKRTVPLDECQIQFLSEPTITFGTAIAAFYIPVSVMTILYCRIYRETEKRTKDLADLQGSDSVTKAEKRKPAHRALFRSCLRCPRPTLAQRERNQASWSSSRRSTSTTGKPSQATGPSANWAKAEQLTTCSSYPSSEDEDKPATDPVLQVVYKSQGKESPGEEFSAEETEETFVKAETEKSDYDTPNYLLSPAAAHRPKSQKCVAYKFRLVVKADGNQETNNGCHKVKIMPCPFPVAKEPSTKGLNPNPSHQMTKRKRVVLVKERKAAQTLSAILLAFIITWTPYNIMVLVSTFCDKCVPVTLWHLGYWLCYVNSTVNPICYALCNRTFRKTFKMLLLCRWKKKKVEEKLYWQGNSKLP
Procedure: as §1, §2

- NanoBRET Fold Response (CCR10; 0.1μM tracer): 0.84
- NanoBRET Fold Response (CCR10; 1μM tracer): 0.85
- NanoBRET Fold Response (CHRM5; 0.1μM tracer): 0.89
- NanoBRET Fold Response (CHRM5; 1μM tracer): 1.23
SMILES: COc1ccc2c(n1)c(CCNC(C)=O)cn2CCNC(=O)CCc1ccc2n1[B-](F)(F)[N+]1=C(c3ccc[nH]3)C=CC1=C2 [Azamelatonin-1-NB590]

SMILES: CN(CCC=C1c2ccccc2CCc2ccccc21)C(=O)CCOCCOCCOCCOCCNC(=O)CCc1ccc2n1[B-](F)(F)[N+]1=C(c3ccc[nH]3)C=CC1=C2 [Amitriptyline-e-2-NB590]
- NanoBRET Fold Response (CCR10; tracer at 1μM): 1.04
- NanoBRET Fold Response (CHRM5; tracer at 1μM): 1.14

SMILES: O=C(CCc1ccc2n1[B-](F)(F)[N+]1=C(c3ccc[nH]3)C=CC1=C2)NCc1ccc(C(=O)NCCOCCOCCNCC(O)COc2cccc3ccccc23)cc1 (centres unmarked) [Propranolol-3-NB590]
- NanoBRET Fold Response (CCR10; CCR10, 0.1μM): 1.04
- NanoBRET Fold Response (CCR10; CCR10, 1μM): 1.00
- NanoBRET Fold Response (CHRM5; CHRM5, 0.1μM): 1.00
- NanoBRET Fold Response (CHRM5; CHRM5, 1μM): 1.03

- NanoBRET Fold Response (CCR10; CCR10, 0.1μM tracer): 1.04
- NanoBRET Fold Response (CCR10; CCR10, 1μM tracer): 1.01
- NanoBRET Fold Response (CHRM5; CHRM5, 0.1μM tracer): 1.10
- NanoBRET Fold Response (CHRM5; CHRM5, 1μM tracer): 0.91
SMILES: O=C(CCOCCOCCOCCOCCNC(=O)CCc1ccc2n1[B-](F)(F)[N+]1=C(c3ccc[nH]3)C=CC1=C2)NCCCN1CCN(C2=Nc3cc(Cl)ccc3Nc3ccccc32)CC1 [Clozapine-a-2-NB590]
